Like-named read-outs stand apart in the source and are kept apart here.
Assays:
ATP synthase = tested on: T1, ATP synthase; test: Succinate-driven ATP synthesis by SMPs; format: biochemical, bovine; details: 15 mM buformin, 100 mM metformin; others up to concentrations above IC50 for ATP hydrolysis; corrected for succinate oxidation
T1 construct: from tissue; host or cells: SMPs from bovine heart mitochondria
Excerpt: Data points are means±S.E.M., n=3, as a percentage of ATP production in the absence of biguanide. […] (●).

[1] = Typical blood serum levels; format: in vivo; details: 1000-fold accumulation at combined membrane potentials of 180 mV
143B osteosarcoma cells = test: Rotenone-sensitive OCR of 143B cells (Seahorse); format: cell-based, human; details: 6 h exposure, read-out: cellular IC50, rotenone-sensitive OCR
Description: Cells [143B (cell line 8303 from the A.T.C.C.) and Hep G2 (cell line 85011430 from The Health Protection Agency)] were grown on DMEM (Dulbecco's modified Eagle's medium) supplemented with 10% FBS (Thermo Fisher Scientific) and 100 units/ml penicillin and 100 μg/ml streptomycin at 37°C in 5% CO2. Per well, 3×10^4 or 1.5×10^4 cells were plated into XF24 or XF96 (Seahorse Bioscience) plates respectively, and incubated for 12 h at 37°C in 5% CO2. The medium was exchanged for assay buffer containing DMEM, 4.5 g/l glucose, 1 mM pyruvate, 32 mM NaCl, 2 mM GlutaMAX, 15 mg/l Phenol Red and 20 mM Hepes (pH 7.4) and the cells placed in a CO2-free incubator at 37°C for 60 min. OCRs (oxygen consumption rates) and ECARs (extracellular acidification rates) were measured in a Seahorse extracellular flux analyser; 200 nM rotenone was used to inhibit complex I where stated. To calculate the normalized rotenone-sensitive OCR rates, the rotenone-insensitive rates (determined at the end of the experiment) were subtracted and the traces normalized to 100% before biguanide addition. ECAR data were normalized to 100% before biguanide addition. For the permeabilized cell experiments, cells were seeded at 3.5×10^3 per well and incubated for 62 h at 37°C in 5% CO2. The medium was exchanged for assay buffer containing 3 nM plasma membrane permeabilizer ‘PMP’ (Seahorse Biosciences), 10 mM pyruvate, 10 mM malate, 220 mM mannitol, 70 mM sucrose, 10 mM KH2PO4, 5 mM MgCl, 1 mM EGTA, 0.2% fatty-acid-free BSA and 2 mM Hepes (pH 7.4) at 37°C. Cells were incubated for 15 min and a baseline was recorded for normalization, then the test compounds were added. […]
Biguanides are positively charged so they are expected to accumulate in the mitochondria of cells in response to the potential difference across the inner membrane (the potential difference is the ‘charge’ component of the protonmotive force). […] The OCRs were normalized to their values before biguanide addition, and monitored throughout the experiment; rotenone-insensitive rates were subtracted, and all rates after 6 h compared with a biguanide-free control. […]

[2] = tested on: T2, complex I (NADH:ubiquinone oxidoreductase); test: NADH:decylubiquinone oxidoreduction by isolated complex I; format: biochemical, Bos taurus (bovine); details: for inhibition of complex I catalysis at extrapolated mitochondrial concentration: 10 mM metformin, 200 μM phenformin in mitochondria; for IC50: isolated bovine complex I, 32°C, pH 7.2, 200 μM NADH, 200 μM decylubiquinone, 95% confidence intervals
T2 construct: from tissue; host or cells: bovine heart mitochondria
Description: Catalysis was initiated by the addition of NADH, following a 2 min pre-incubation, and rates measured as the linear regression of the maximal rate (discarding any initial lag phases). […] Control experiments included NaCl (to maintain the ionic strength) or DMSO.
Experimental values are reported as means±S.E.M. for small sample sizes or as means±S.D. for large sample sizes with only technical error sources. […] Comparisons between samples are marked *P<0.05, **P<0.01 and ****P<0.0001 as determined using an unpaired two-tailed Students t test. Differences between measurements with P>0.05 were considered not significant.

143B and Hep G2 cells = test: Accumulation into mitochondria of cultured cells inferred from complex I inhibition; format: cell-based, human; details: 6 h
Excerpt: Biguanides are positively charged so they are expected to accumulate in the mitochondria of cells in response to the potential difference across the inner membrane (the potential difference is the ‘charge’ component of the protonmotive force). Each 60 mV of potential difference drives the concentration of the positive ion to 10-times higher inside the mitochondrion than outside. For a typical potential difference of 120–150 mV the concentration inside the mitochondrion could therefore be 100 to 300-times higher than outside. […] The OCRs were normalized to their values before biguanide addition, and monitored throughout the experiment; rotenone-insensitive rates were subtracted, and all rates after 6 h compared with a biguanide-free control. […]. […] […].

[3] = set-up: method as in PMID 12889529; details: cited from earlier work
[4] = tested on: T3, isolated F1 domain of ATPase; test: ATP hydrolysis by the isolated F1 domain; format: biochemical, bovine; details: at the SMP IC50 values
T3 construct: from tissue; host or cells: bovine mitochondria
Description: Complex I was prepared from Bos taurus (bovine) heart mitochondria, Pichia pastoris and Escherichia coli, as described previously. SMPs (submitochondrial particles) and mitochondrial membranes were prepared from bovine heart mitochondria. […] Mitochondria were isolated from rat liver by the method of Chappell and Hansford. F1FO-ATP synthase and the F1 domain were isolated from bovine mitochondria as described previously using a HiLoad Superdex 200-PG column and omitting azide and 2-mercaptoethanol.

[5] = tested on: Hep G2 hepatocarcinoma cells; test: Rotenone-sensitive OCR and ECAR of Hep G2 cells (Seahorse); format: cell-based, human; details: for IC50: Hep G2 cells, 6 h exposure, read-out: cellular IC50, rotenone-sensitive OCR; for effect on rotenone-sensitive OCR or ECAR: concentration equal to complex I IC50/10, 6 h of treatment
Description: OCRs (oxygen consumption rates) and ECARs (extracellular acidification rates) were measured in a Seahorse extracellular flux analyser; 200 nM rotenone was used to inhibit complex I where stated. To calculate the normalized rotenone-sensitive OCR rates, the rotenone-insensitive rates (determined at the end of the experiment) were subtracted and the traces normalized to 100% before biguanide addition. ECAR data were normalized to 100% before biguanide addition. […] Isolated rat liver mitochondria were plated at 20 μg per well in the same buffer but without PMP. They were adhered to the plate by centrifugation at 2000 g for 20 min at 4°C and measurements performed and normalized (after temperature equilibration) as for permeabilized cells but at 32°C.
Biguanides are positively charged so they are expected to accumulate in the mitochondria of cells in response to the potential difference across the inner membrane (the potential difference is the ‘charge’ component of the protonmotive force). Each 60 mV of potential difference drives the concentration of the positive ion to 10-times higher inside the mitochondrion than outside. For a typical potential difference of 120–150 mV the concentration inside the mitochondrion could therefore be 100 to 300-times higher than outside. […] The OCRs were normalized to their values before biguanide addition, and monitored throughout the experiment; rotenone-insensitive rates were subtracted, and all rates after 6 h compared with a biguanide-free control.

complex III = test: Complex III inhibition (succinate:cytochrome c oxidoreduction); details: read-out: IC50 on complex III
complex I [6] = test: NADH:decylubiquinone oxidoreduction by isolated complex I from bacterium; format: biochemical, Escherichia coli; details: read-out: IC50, inhibition of complex I; complex I from the bacterium E. coli
Description: (§1) Complex I was prepared from Bos taurus (bovine) heart mitochondria, Pichia pastoris and Escherichia coli, as described previously. SMPs (submitochondrial particles) and mitochondrial membranes were prepared from bovine heart mitochondria. Complex IV was a by-product from the preparation of complex I; it elutes from the Q-Sepharose column at ~250 mM NaCl. Mitochondria were isolated from rat liver by the method of Chappell and Hansford. F1FO-ATP synthase and the F1 domain were isolated from bovine mitochondria as described previously using a HiLoad Superdex 200-PG column and omitting azide and 2-mercaptoethanol.
(§2) NADH:decylubiquinone oxidoreduction was measured using 200 μM NADH and 200 μM decylubiquinone, in 0.075% soya bean asolectin (Avanti Polar Lipids) and 0.075% CHAPS (Merck Chemicals) and quantified by the absorbance of NADH (ε340–380=4.81 mM^−1·cm^−1). Catalysis was initiated by the addition of NADH, following a 2 min pre-incubation, and rates measured as the linear regression of the maximal rate (discarding any initial lag phases). […] Initial rates for the NADH:FeCN (ferricyanide), NADH:HAR [hexaammineruthenium(III)] and NADH:paraquat reactions were measured in 100 μM NADH with 1 mM FeCN (ε420–500=1 mM^−1·cm^−1), 3.5 mM HAR or 200 μM paraquat (ε340–380=4.81 mM^−1·cm^−1). […]

complex I flavin site = tested on: T4, complex I flavin site; test: NADH-dependence of NADH:FeCN catalysis by isolated bovine complex I; format: biochemical; details: 100 mM metformin
T4 construct: from tissue; host or cells: bovine heart mitochondria

[7] = tested on: immunoprecipitated complex I; set-up: method as in PMID 18817800; details: previous data; cited from earlier work
complex I in SMPs = tested on: T5, complex I in SMPs; test: NADH oxidation by SMPs; format: biochemical, bovine; details: 100 mM metformin added 10 min after initiation by 200 μM NADH
T5 construct: from tissue; host or cells: SMPs from bovine heart mitochondria

complex I flavin = tested on: T6, complex I flavin; test: H2O2 production (NADH:O2 oxidoreduction) by isolated complex I; format: biochemical, bovine; details: dose-response
T6 construct: from tissue; host or cells: bovine heart mitochondria (from context)
Description: (§3) NADH:decylubiquinone oxidoreduction was measured using 200 μM NADH and 200 μM decylubiquinone, in 0.075% soya bean asolectin (Avanti Polar Lipids) and 0.075% CHAPS (Merck Chemicals) and quantified by the absorbance of NADH (ε340–380=4.81 mM^−1·cm^−1). Catalysis was initiated by the addition of NADH, following a 2 min pre-incubation, and rates measured as the linear regression of the maximal rate (discarding any initial lag phases). […] Initial rates for the NADH:FeCN (ferricyanide), NADH:HAR [hexaammineruthenium(III)] and NADH:paraquat reactions were measured in 100 μM NADH with 1 mM FeCN (ε420–500=1 mM^−1·cm^−1), 3.5 mM HAR or 200 μM paraquat (ε340–380=4.81 mM^−1·cm^−1). H2O2 formation was followed in 30 μM NADH as the catalase-sensitive horseradish peroxidase-dependent oxidation of 10 μM Amplex Red to resorufin (ε557–620=51.6 mM^−1·cm^−1), with 2 units/ml superoxide dismutase, or by monitoring NADH oxidation. Metformin (Cambridge Bioscience) phenformin and buformin (Santa Cruz Biotechnology) were added from aqueous stock solutions, and cycloguanil (Santa Cruz Biotechnology) and proguanil (Sigma–Aldrich) were in DMSO. Control experiments included NaCl (to maintain the ionic strength) or DMSO.

complex I [8] = test: NADH:decylubiquinone oxidoreduction by isolated complex I from yeast; format: biochemical, Pichia pastoris; details: complex I from the yeast P. pastoris; read-out: IC50, inhibition of complex I
Description: as §1, §2

complex I [9] = test: NADH:FeCN oxidoreduction by complex I from E. coli; format: biochemical, Escherichia coli; details: 200 mM metformin
Description: as §3

complex I [10] = test: NADH:FeCN oxidoreduction by complex I from P. pastoris; format: biochemical, Pichia pastoris; details: 200 mM metformin
Description: as §3

[11] = tested on: isolated rat skeletal muscle mitochondria; test: H2O2 production by isolated rat skeletal muscle mitochondria (resorufin fluorescence); details: glutamate and pyruvate, ATP and rotenone
Excerpt: . However, these extramitochondrial concentrations are very high and we are unable to control the intramitochondrial concentration or conditions, so the results are not quantitatively meaningful. […]

[12] = molecular target: T7, isolated ATPase (F1FO-ATP synthase); test: ATP hydrolysis by isolated intact ATPase; format: biochemical, bovine; details: isolated intact enzyme
T7 construct: from tissue; host or cells: bovine mitochondria
Description: as §1

F1FO-ATPase = molecular target: T8, F1FO-ATPase; test: ATP hydrolysis by F1FO-ATPase in SMPs (coupled assay); format: biochemical; details: bovine SMPs
T8 construct: from tissue; host or cells: SMPs from bovine heart mitochondria

Structure (SMILES)	effect on succinate-driven ATP synthesis (ATP synthase)	mitochondrial concentration extrapolated from serum [1] [µM]	IC50 (143B osteosarcoma cells; Homo sapiens, 143B, 6 h) [µM]	inhibition of complex I catalysis at extrapolated mitochondrial concentration [2]	serum concentration [3]	inhibition of ATP hydrolysis by the isolated F1 domain [4]	effect on rotenone-sensitive OCR or ECAR [5]	IC50 [2] [µM]	H2O2 production rate maximum (complex I flavin) [%]	further results
[H]/N=C(/N)N/C(=N/[H])NCCc1ccccc1 [phenformin]	inhibition of synthesis is observed at higher concentrations	200	3.81 ± 1.12	~ 25%	~ 200 nM	32±7.5%	–	–	–	accumulation (isolated complex I IC50 versus cellular IC50) (143B and Hep G2 cells): 120 fold; IC50 ([5]; Homo sapiens, HepG2): 3.8 ± 0.38 µM; time for uptake to reach completion ([5]; concentration equal to complex I IC50/10 (0.04 mM phenformin)): approximately 6 h
CC1(C)N=C(N)N=C(N)N1c1ccc(Cl)cc1 [cycloguanil]	neither cycloguanil or proguanil affect ATP synthesis	–	–	–	–	no significant inhibition	neither proguanil nor cycloguanil exhibited any substantial effect	–	–	IC50 (complex III): 2480 ± 210 µM
CCCCNC(=N)NC(=N)N [buformin]	No inhibition	–	–	–	–	74±3%	–	–	–	–
CN(C)C(=N)N=C(N)N [metformin]	No inhibition	10000	237 ± 13	~ 25%	~ 10 μM	–	–	19400 ± 1400	338±41	IC50 (complex I [6]): 60700 ± 8500 µM; increase of the dissociation constant for NADH to the reduced flavin (complex I flavin site): ~ 20 times; KNADHRed (dissociation constant for NADH binding to the reduced flavin) (complex I flavin site; control 11 μM, data fit): 181 µM; IC50 [7]: 66000 µM; time for inhibition to attain the same level when added during catalysis (complex I in SMPs): more than 30 min; IC50 (143B osteosarcoma cells): 240 ± 10 µM; mode of inhibition of complex I ([2]; Michaelis-Menten analysis towards decylubiquinone): reversible non-competitive inhibitor; IC50 (complex I [8]): 22600 ± 4300 µM; NADH:FeCN reaction rate (stimulation) (complex I [9]): 144±2%; NADH:FeCN reaction rate (stimulation) (complex I [10]): 166±1%; stimulation of H2O2 production rate ([11]; 50 mM metformin): 270±34%; stimulation of H2O2 production rate ([11]; 100 mM metformin): 360±35%; IC50 [5]: 330 ± 20 µM; IC50 ([5]; Homo sapiens, HepG2, 6 h): 325 ± 25 µM
[H]/N=C(\N/C(=N/[H])Nc1ccc(Cl)cc1)NC(C)C [proguanil]	neither cycloguanil or proguanil affect ATP synthesis	–	–	–	–	no significant inhibition	neither proguanil nor cycloguanil exhibited any substantial effect	–	–	IC50 [12]: 0.67 ± 0.1 µM; IC50 (F1FO-ATPase): 6.8 ± 0.7 µM
N=C(N)N [guanidinium]	–	–	–	–	–	–	–	25800 ± 3900	386±34	–
